According to patent publication EP4818168A1, “FUSED RING COMPOUND, PHARMACEUTICAL COMPOSITION THEREOF AND USE THEREOF” (priority 2023, dated 2025):
Like-named read-outs stand apart in the source and are kept apart here.

Tests used:
AURKA = target: T1, AURKA (Homo sapiens, UniProt O14965); format: cell-based
T1 construct: endogenous in cells; host or cells: Jurkat cells
T1 sequence (O14965 1-403): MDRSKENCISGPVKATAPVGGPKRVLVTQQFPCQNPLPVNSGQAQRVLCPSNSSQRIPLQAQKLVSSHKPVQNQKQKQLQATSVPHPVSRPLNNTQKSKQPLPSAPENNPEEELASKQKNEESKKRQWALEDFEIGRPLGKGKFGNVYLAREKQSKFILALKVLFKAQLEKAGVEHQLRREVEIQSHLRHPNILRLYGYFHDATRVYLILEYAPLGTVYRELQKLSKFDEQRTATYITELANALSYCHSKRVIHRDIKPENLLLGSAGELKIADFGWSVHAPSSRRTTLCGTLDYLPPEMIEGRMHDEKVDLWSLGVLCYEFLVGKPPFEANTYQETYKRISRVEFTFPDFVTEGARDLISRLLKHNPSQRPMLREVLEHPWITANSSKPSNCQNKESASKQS
How it was run: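 Jurkat cells seeded at 1×10^6 cells/500 µL and treated with compound; lysates run on SDS-PAGE, blotted to nitrocellulose and probed overnight at 4°C for AURKA. Chemiluminescent or fluorescent band intensity fitted to a curve to give DC50 for protein degradation.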

HCC1806 cells = assay: CTG assay of compound inhibition on cell viability (HCC1806 cells); format: cell-based; conditions: Homo sapiens, read-out: IC50 in HCC1806 Cells
Method: CellTiter-Glo (CTG) is a rapid cell viability test method based on ATP detection. […] Adenosine triphosphate (ATP) participates in various enzymatic reactions in organisms and is an indicator of living cell metabolism. Its content directly reflects the number of living cells and cell status. During the experiment, equal volume of CTG reagent is added to the cultured cells to measure the luminescence value. The chemiluminescent signal value is proportional to the amount of ATP, thus reflecting the number of viable cells. Therefore, cell viability can be obtained by detecting the ATP content. Compounds that affect cell viability will inhibit cell viability in a concentration-dependent manner, allowing a curve to be fitted to obtain the IC50 value.
The experimental procedure is as follows: • 11. Place the cell suspension in a 15 mL centrifuge tube, centrifuge at 1000 rpm for 5 min at room temperature, discard the supernatant, and collect the cell pellet. • 12. Resuspend the cell pellet with preheated complete cell culture medium (RPMI1640+10%FBS+1%PS), and use a Countess® automated cell counter to detect cell viability and density. The cell viability must be above 90%. • 13. […] Transfer the compound solution to a 96-well plate seeded with cells (final concentration of DMSO 0.1%), and place in a cell incubator at 37°C, 5% CO2 for 6 days. • 15. […] Protect from light during the whole process. Perform optical signal readings using a SpectraMax i3x reader. • 16. Data analysis: Remaining activity (%) = 100% * (1 - ((LumDMSO - Lummedium) - Lumsample) / (LumDMSO - LumPBS/medium)). Use GraphPad Prism 9.0 software to draw an S-shaped dose-survival rate curve and calculate the IC50 value using a nonlinear regression model.

[1] = 100 nM compound, Jurkat cells, 24 h, Table 1
[2] = 1 µM compound, Jurkat cells, 24 h, Table 1

Row | Compound | Percentage of AURKA Degradation Induced by 100 nM Compound in Jurkat Cells (AURKA; [1]) | Percentage of AURKA Degradation Induced by 1 µM Compound in Jurkat Cells (AURKA; [2]) | IC50 (HCC1806 cells; HCC1806, 144 h) | Percentage of AURKA Degradation Induced by 100 nM Compound in Jurkat Cells (AURKA) | Percentage of AURKA Degradation Induced by 1 µM Compound in Jurkat Cells (AURKA) | IC50 (HCC1806 cells; 144 h, HCC1806 cells, 6 days, CellTiter-Glo)
1 | COc1cc(Nc2ncc3c(n2)-c2ccc(Cl)cc2C(c2c(F)cccc2OC)=NC3)ccc1C(=O)NCCC#Cc1ccc(N2CCC(=O)NC2=O)cc1 [Compound A26] | + (Degradation ≤ 30%) | + (Degradation ≤ 30%) | < 1000 nM | – | – | –
2 | COc1cc(Nc2ncc3c(n2)-c2ccc(Cl)cc2C(c2c(F)cccc2OC)=NC3)ccc1C(=O)N(C)C1CC2(CCN(c3ccc(N4CCC(=O)NC4=O)cc3)CC2)C1 [Compound A40] | ++ (30% < Degradation ≤ 70%) | + (Degradation ≤ 30%) | < 1000 nM | – | – | –
3 | COc1cc(Nc2ncc3c(n2)-c2ccc(Cl)cc2C(c2c(F)cccc2OC)=NC3)ccc1C(=O)NCCN1CCC(c2ccc(N3CCC(=O)NC3=O)cn2)CC1 [Compound A16] | +++ (Degradation > 70%) | ++ (30% < Degradation ≤ 70%) | < 1000 nM | – | – | –
4 | COc1cccc(F)c1C1=NCc2cnc(Nc3ccc(C(=O)NC4CN(CC5CN(c6ccc(N7CCC(=O)NC7=O)cc6)C5)C4)cc3)nc2-c2ccc(Cl)cc21 [Compound A71] | +++ (Degradation > 70%) | +++ (Degradation > 70%) | < 1000 nM | – | – | –
5 | O=C1CCN(c2ccc(N3CCN(C4CN(C(=O)c5ccc(Nc6ncc7c(n6)-c6ccc(Cl)cc6C(c6c(F)cccc6F)=NC7)cc5)C4)CC3)cc2)C(=O)N1 [Compound A19] | ++ (30% < Degradation ≤ 70%) | + (Degradation ≤ 30%) | < 1000 nM | – | – | –
6 | COc1cc(Nc2ncc3c(n2)-c2ccc(Cl)cc2C(c2c(F)cccc2OC)=NC3)ccc1C(=O)NCCN1CCN(c2ccc(N3CCC(=O)NC3=O)nc2)CC1 [Compound A30] | ++ (30% < Degradation ≤ 70%) | ++ (30% < Degradation ≤ 70%) | < 1000 nM | – | – | –
7 | COc1cc(Nc2ncc3c(n2)-c2ccc(Cl)cc2C(c2c(F)cccc2OC)=NC3)ccc1C(=O)N[C@H]1C[C@H](C#Cc2ccc(N3CCC(=O)NC3=O)cc2)C1 [Compound A51] | ++ (30% < Degradation ≤ 70%) | +++ (Degradation > 70%) | 1000 to 10000 nM | – | – | –
8 | COc1cc(Nc2ncc3c(n2)-c2ccc(Cl)cc2C(c2c(F)cccc2OC)=NC3)ccc1C(=O)NC1CC2(CCN(c3ccc(N4CCC(=O)NC4=O)cc3)CC2)C1 [Compound A38] | +++ (Degradation > 70%) | +++ (Degradation > 70%) | < 1000 nM | – | – | –
9 | COc1cccc(F)c1C1=NCc2cnc(Nc3ccc(C(=O)NC4CC5(C4)CN(c4cccc(N6CCC(=O)NC6=O)c4)C5)cc3)nc2-c2ccc(Cl)cc21 [Compound A63] | ++ (30% < Degradation ≤ 70%) | ++ (30% < Degradation ≤ 70%) | < 1000 nM | – | – | –
10 | COc1cc(Nc2ncc3c(n2)-c2ccc(Cl)cc2C(c2c(F)cccc2OC)=NC3)ccc1C(=O)NC1CC2(CCN(c3ccc(N4CCC(=O)NC4=O)cn3)CC2)C1 [Compound A54] | +++ (Degradation > 70%) | +++ (Degradation > 70%) | < 1000 nM | – | – | –
11 | CN(CCN1CCN(c2ccc(N3CCC(=O)NC3=O)cc2)CC1)C(=O)c1ccc(Nc2ncc3c(n2)-c2ccc(Cl)cc2C(c2c(F)cccc2F)=NC3)cc1 [Compound A11] | +++ (Degradation > 70%) | ++ (30% < Degradation ≤ 70%) | < 1000 nM | – | – | –
12 | O=C1CCC(N2CCN(C3CN(CCNC(=O)c4ccc(Nc5ncc6c(n5)-c5ccc(Cl)cc5C(c5c(F)cccc5F)=NC6)cc4)C3)CC2=O)C(=O)N1 (stereo not drawn) [Compound A75] | – | – | 1000 to 10000 nM | ++ (key: +: Degradation ≤ 30%; ++: 30% < Degradation ≤ 70%; +++: Degradation > 70%) | ++ (key: +: Degradation ≤ 30%; ++: 30% < Degradation ≤ 70%; +++: Degradation > 70%) | –
13 | O=C1CCC(N2C(=O)c3cccc(NCCOCCNC(=O)c4ccc(Nc5ncc6c(n5)-c5ccc(Cl)cc5C(c5c(F)cccc5F)=NC6)cc4)c3C2=O)C(=O)N1 (stereo not drawn) [Compound A1] | ++ (30% < Degradation ≤ 70%) | ++ (30% < Degradation ≤ 70%) | – | – | – | < 1000 nM
14 | O=C1CCN(c2ccc(N3CCC(CNC(=O)c4ccc(Nc5ncc6c(n5)-c5ccc(Cl)cc5C(c5c(F)cccc5F)=NC6)cc4)CC3)cc2)C(=O)N1 [Compound A12] | + (Degradation ≤ 30%) | + (Degradation ≤ 30%) | < 1000 nM | – | – | –
15 | COc1cc(Nc2ncc3c(n2)-c2ccc(Cl)cc2C(c2c(F)cccc2OC)=NC3)ccc1C(=O)NCCN1CCN(c2ccc(N3CCC(=O)NC3=O)cn2)CC1 [Compound A29] | +++ (Degradation > 70%) | +++ (Degradation > 70%) | < 1000 nM | – | – | –
16 | COc1cc(Nc2ncc3c(n2)-c2ccc(Cl)cc2C(c2c(F)cccc2OC)=NC3)ccc1C(=O)NCCN1CCN(c2ncc(N3CCC(=O)NC3=O)cn2)CC1 [Compound A45] | ++ (30% < Degradation ≤ 70%) | ++ (30% < Degradation ≤ 70%) | < 1000 nM | – | – | –
17 | COc1cccc(F)c1C1=NCc2cnc(Nc3ccc(C(=O)NCCN4CCN(c5ccc(N6CCC(=O)NC6=O)cn5)CC45CC5)cc3)nc2-c2ccc(Cl)cc21 [Compound A69] | +++ (Degradation > 70%) | +++ (Degradation > 70%) | < 1000 nM | – | – | –
18 | O=C1CCN(c2ccc(N3CC4(CCC(NC(=O)c5ccc(Nc6ncc7c(n6)-c6ccc(Cl)cc6C(c6c(F)cccc6F)=NC7)cc5)CC4)C3)cc2)C(=O)N1 [Compound A56] | +++ (Degradation > 70%) | +++ (Degradation > 70%) | < 1000 nM | – | – | –
19 | COc1cccc(F)c1C1=NCc2cnc(Nc3ccc(C(=O)NCCN4CCN(c5ccc(N6CCC(=O)NC6=O)cn5)C5(CC5)C4)cc3)nc2-c2ccc(Cl)cc21 [Compound A67] | + (Degradation ≤ 30%) | + (Degradation ≤ 30%) | < 1000 nM | – | – | –
20 | COc1cc(Nc2ncc3c(n2)-c2ccc(Cl)cc2C(c2c(F)cccc2OC)=NC3)ccc1C(=O)N[C@H]1C[C@H](C#Cc2cccc3c2CN(C2CCC(=O)NC2=O)C3=O)C1 (relative stereo) [Compound A7] | – | – | 1000 to 10000 nM | ++ (key: +: Degradation ≤ 30%; ++: 30% < Degradation ≤ 70%; +++: Degradation > 70%) | ++ (key: +: Degradation ≤ 30%; ++: 30% < Degradation ≤ 70%; +++: Degradation > 70%) | –
21 | O=C1CCN(c2ccc(N3CC4(CCC(NC(=O)c5ccc(Nc6ncc7c(n6)-c6ccc(Cl)cc6C(c6c(F)cccc6F)=NC7)cc5)CC4)C3)nc2)C(=O)N1 [Compound A61] | +++ (Degradation > 70%) | +++ (Degradation > 70%) | < 1000 nM | – | – | –
22 | COc1cccc(F)c1C1=NCc2cnc(Nc3ccc(C(=O)NC4CN(CC5CN(c6cccc(N7CCC(=O)NC7=O)c6)C5)C4)cc3)nc2-c2ccc(Cl)cc21 [Compound A73] | +++ (Degradation > 70%) | +++ (Degradation > 70%) | < 1000 nM | – | – | –
